This note sets out measurements from patent US10543193B2, “Processes useful for the preparation of 1-[3-(4-bromo-2-methyl-2H-pyrazol-3-yl)-4-methoxy-phenyl]-3-(2,4-difluoro-phenyl)-urea and crystalline forms related thereto” (ARENA PHARMACEUTICALS, INC., priority 2008, dated 2020).

“Also recorded” adds a separate entry of the source.

A short description of data set [1]: Methyl cellulose optimization: Form I to Form II conversion in water pastes (PXRD). Type of data set: physicochemical. As to the method: In a small scintillation vial, 152.13 mg of micronized APD125 Form I, was spiked with sufficient deionized water to make a paste; the weight of the water added, 844.60 mg, was recorded, and the resulting mixture was stirred using a spatula to obtain a paste. The resulting sample, post-collection of an initial PXRD pattern, was capped, wrapped in tinfoil and stored at 40° C. until the next day, when a second PXRD pattern was obtained.
Using another small scintillation vial, 2.1183 g of micronized APD125 Form I, was mixed with 3.3619 g of a 0.5% w/v methyl cellulose to obtain a paste, which was immediately sampled for PXRD analysis to verify starting APD125 solid-state form, post-methyl cellulose addition. The remaining sample in the scintillation vial was split into two portions, placed in capped, parafilm-wrapped scintillation vials, which were then wrapped in tinfoil and stored at 40° C. and room temperature, respectively. PXRD patterns were collected at initial (t=0), 2-day and 16-day time points for each sample.
APD125 micronized Form I/PVP (1:8) blend, weighing 3.0081 g and containing 0.5% w/w methyl cellulose, was mixed with 3.71277 g of water to form a paste. After sampling the paste for an initial PXRD pattern, the remaining paste was split into two portions, placed in capped, parafilm-wrapped scintillation vials, which were then wrapped in tinfoil and stored at 40° C. and room temperature, respectively. PXRD patterns were collected at initial (t=0), 1-day, 7-day and 21-day time points.
For each blend, materials were dispensed (minus magnesium stearate) into a glass vial and blended for about 5 minutes. Magnesium stearate was added and the mixture was blended an additional 2 minutes. The final blend was compacted into standard round concave tablets ( 5/16″ diameter) with a total tablet weight of 200 mg and hardness of 10 kp using a Carver press. For each batch of tablets, several were crushed using a mortar and pestle to obtain a fine powder, from which a small sample was taken for PXRD analysis to confirm the initial APD125 polymorphic form. The remaining powder was weighed into a Qorpak® bottle, and ca. 50% w/w deionized water was added. The resulting mixture was stirred using a micro-spatula to wet the powder and form a paste. A Teflon® lid was screwed on tightly, and the prepared samples were stored in a 40° C. oven.
(§1) PXRD measurements were obtained using a Philips (PANalytical) X'Pert PRO theta/theta diffractometer (EQ 0233) equipped with an X'Celerator RTMS detector and utilizing copper Kα radiation, operating at 45 kV and 40 mA. The instrument radius was 239.5 mm, the mask filter was 20 mm, the soller slit was 0.04 radians, and a nickel filter and sample spinning were used during data acquisition. The application and instrument control software used were X'Pert Data Collector®, version 2.0c and XPERT-PRO®, version 1.6, respectively. The API-based paste samples were scanned from 5° to 40°2θ in continuous mode, using a step size of 0.0167°2θ and a counting time of 40.005 seconds. The tablet granulation samples were scanned from 2° to 15°2θ in continuous mode, using a step size of 0.0167°2θ and a counting time of 1063.625 s.

Data set [2] can be described thus: Effect of milling and compression upon APD125 Form I (PXRD). Type of data set: physicochemical. The protocol:
Micronized APD125 Form I, was ground using a mortar and pestle, with samples withdrawn at 1-min, 5-min and 10-min time points for PXRD analyses to evaluate the impact of grinding upon the solid-state form of APD125 Form I. PXRD patterns were obtained pre- and post-milling. Additionally, micronized APD125 Form I, was compressed at 2 kp, 5 kp and 10 kp for 1 min per sample using a Carver press. The samples were then removed from the Carver press and lightly broken up using a mortar and pestle, prior to PXRD analysis to evaluate the impact of compression upon the solid-state form of APD125 Form I. PXRD patterns were obtained pre- and post-compression.
as §1, with “The” for “The API-based paste”, “0.0167°2θ.” for “0.0167°2θ and a counting time of 40.005 seconds. The tablet granulation samples were scanned from 2° to 15°2θ in continuous mode, using a step size of 0.0167°2θ and a counting time of 1063.625 s.”

Another data set relates to insomnia patients. Kind of data set: Phase 2 trial: sleep maintenance. Type of data set: in vivo, humans. An excerpt:
The data from the APD125 Phase 2 study are consistent with Phase 1 data and support further development of APD125 for the treatment of insomnia patients who have difficulty maintaining sleep.

In a further data set the test system is Healthy Adults. Kind of data set: Phase 1 trials: waking EEG. The class given is in vivo, humans.
A further data set has as its system normal volunteers. Kind of data set: Afternoon nap model of insomnia in normal volunteers. Type of data set: in vivo, humans. From the text: Sleep onset latency was not decreased by APD125. In the afternoon nap model, APD125 decreased microarousals, the number of sleep stage shifts and number of awakenings after sleep onset.

As to `COc1ccc(NC(=O)Nc2ccc(F)cc2F)cc1-c1c(Br)cnn1C` [APD125 Form I, 1-[3-(4-bromo-2-methyl-2H-pyrazol-3-yl)-4-methoxy-phenyl]-3-(2,4-difluoro-phenyl)-urea], the “conversion to Form II (PXRD)” value is listed as “no evidence of conversion to Form II” in data set [1] (aqueous 0.5% w/w methyl cellulose, 40° C., after 16 days) and “did not convert to Form II” in data set [1] (suspended in aqueous 0.5% w/w methyl cellulose, room temperature, 21 days). Besides, the “PXRD pattern (FIG. 8 legend)” value in data set [1] (aqueous 0.5% w/w methyl cellulose, room temperature and 40° C., after 16 days) was “substantially converted to Form II”. The “time to conversion to Form II (PXRD)” value in data set [1] (paste in water alone at 40° C.) was at most 24 h. In addition, the “PXRD pattern (FIG. 9 legend)” value in data set [1] (paste in water alone at room temperature and 40° C. after 24 h) was “substantially converted to Form II”. Further, the “PXRD pattern after compression” value in data set [2] (compressed at 2 kp, 5 kp and 10 kp vs uncompressed) is “consistent with APD125 Form I; also recorded: all substantially comprise Form I”. For the same compound, the “PXRD pattern after grinding” value in data set [2] (mortar and pestle, 1 minute, 5 minutes and 10 minutes, listed as micronized APD125 Form I) is recorded as “No significant changes in the PXRD patterns; also recorded: all substantially comprise Form I”.
With `COc1ccc(NC(=O)Nc2ccc(F)cc2F)cc1-c1c(Br)cnn1C` [Compound I, 1-[3-(4-bromo-2-methyl-2H-pyrazol-3-yl)-4-methoxy-phenyl]-3-(2,4-difluoro-phenyl)-urea], in the data set on insomnia patients, the “next day cognitive effects” value was “without any limiting next day cognitive effects”. Besides, the “measurements of sleep maintenance” value in the data set on insomnia patients (compared to placebo) is on record as “statistically significant improvements”. Further, in the data set with Healthy Adults, the “dose with maximal effects on waking EEG” value is 40 to 80 mg, the “effects on waking EEG” value is on record as “vigilance-lowering effects” and the “time of peak effects on waking EEG after dosing” value is 2 to 4 h. Moreover, in the data set with normal volunteers, the Sleep onset latency result was “not decreased”; the “microarousals, number of sleep stage shifts and number of awakenings after sleep onset” value is recorded as “decreased”. In addition, the “slow wave sleep and associated parameters” value with normal volunteers (primarily during the early part of sleep) was “increased slow wave sleep and associated parameters in a dose-dependent manner”.
